T1: Hexokinase-2 (Homo sapiens, UniProt P52789)
T1 sequence (P52789 whole entry): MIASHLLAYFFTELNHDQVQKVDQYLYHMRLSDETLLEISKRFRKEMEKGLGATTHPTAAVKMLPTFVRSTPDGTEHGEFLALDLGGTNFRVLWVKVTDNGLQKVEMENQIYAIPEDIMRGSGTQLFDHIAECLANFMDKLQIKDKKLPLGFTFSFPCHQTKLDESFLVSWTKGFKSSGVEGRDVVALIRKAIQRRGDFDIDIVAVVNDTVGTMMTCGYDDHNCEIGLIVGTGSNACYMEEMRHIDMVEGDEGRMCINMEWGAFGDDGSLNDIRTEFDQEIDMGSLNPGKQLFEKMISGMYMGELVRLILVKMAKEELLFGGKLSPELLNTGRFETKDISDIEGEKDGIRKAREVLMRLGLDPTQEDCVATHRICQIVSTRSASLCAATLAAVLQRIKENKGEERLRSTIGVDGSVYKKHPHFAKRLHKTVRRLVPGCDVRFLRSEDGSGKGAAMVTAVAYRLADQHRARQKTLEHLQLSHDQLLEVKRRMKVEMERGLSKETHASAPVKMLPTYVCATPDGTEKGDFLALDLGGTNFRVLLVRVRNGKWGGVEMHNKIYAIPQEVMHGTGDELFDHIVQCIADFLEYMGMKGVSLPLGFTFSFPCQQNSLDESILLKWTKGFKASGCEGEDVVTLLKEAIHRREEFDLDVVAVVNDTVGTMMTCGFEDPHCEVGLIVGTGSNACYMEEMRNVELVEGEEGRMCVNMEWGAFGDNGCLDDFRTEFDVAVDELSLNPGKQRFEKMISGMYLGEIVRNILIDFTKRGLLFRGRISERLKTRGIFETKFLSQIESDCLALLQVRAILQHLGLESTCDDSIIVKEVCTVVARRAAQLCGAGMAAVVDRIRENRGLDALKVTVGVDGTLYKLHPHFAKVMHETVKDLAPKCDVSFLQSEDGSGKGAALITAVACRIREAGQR


Assays:
[1] = molecular target: T1, Hexokinase-2; experiment: Inhibition of recombinant human HK2 expressed in Escherichia coli BL21(DE3) using glucose as substrate preincubated for 10 mins followed by substrate addition in presence of ATP by G6PDH/NADP coupled assay
[2] = test system: RAW264.7; experiment: Antiinflammatory activity in mouse RAW264.7 cells assessed as inhibition of LPS-induced NO production preincubated for 3 hrs followed by LPS addition measured after 24 hrs by Griess assay; type: functional, cell-based
[3] = compound: C=C1CC[C@H]2[C@@](C)(CCC(=O)N[C@@]2(C)COC(=O)CCCC[C@@H]2CCSS2)[C@@H]1/C=C/C1=CCOC1=O; experiment: Non competitive inhibition of recombinant human HK2 expressed in Escherichia coli BL21(DE3) assessed as Km using 12.5 uM glucose as substrate by Lineweaver-Burk double reciprocal plot analysis (reference value: 0.64 mM)
[4] = compound: C=C1CC[C@H]2[C@@](C)(CCC(=O)N[C@@]2(C)COC(=O)CCCC[C@@H]2CCSS2)[C@@H]1/C=C/C1=CCOC1=O; experiment: Non competitive inhibition of recombinant human HK2 expressed in Escherichia coli BL21(DE3) assessed as Km using 3.125 uM ATP as substrate by Lineweaver-Burk double reciprocal plot analysis (reference value: 1.62 mM)
[5] = compound: C=C1CC[C@H]2[C@@](C)(CCC(=O)N[C@@]2(C)COC(=O)CCCC[C@@H]2CCSS2)[C@@H]1/C=C/C1=CCOC1=O; experiment: Non competitive inhibition of recombinant human HK2 expressed in Escherichia coli BL21(DE3) assessed as Vmax using 12.5 uM ATP as substrate by Lineweaver-Burk double reciprocal plot analysis (reference value: 0.019 OD/min)
[6] = compound: C=C1CC[C@H]2[C@@](C)(CCC(=O)N[C@@]2(C)COC(=O)CCCC[C@@H]2CCSS2)[C@@H]1/C=C/C1=CCOC1=O; experiment: Non competitive inhibition of recombinant human HK2 expressed in Escherichia coli BL21(DE3) assessed as Km using 3.125 uM glucose as substrate by Lineweaver-Burk double reciprocal plot analysis (reference value: 0.64 mM)
[7] = compound: C=C1CC[C@H]2[C@@](C)(CCC(=O)N[C@@]2(C)COC(=O)CCCC[C@@H]2CCSS2)[C@@H]1/C=C/C1=CCOC1=O; experiment: Non competitive inhibition of recombinant human HK2 expressed in Escherichia coli BL21(DE3) assessed as Km using 6.25 uM glucose as substrate by Lineweaver-Burk double reciprocal plot analysis (reference value: 0.64 mM)
[8] = compound: C=C1CC[C@H]2[C@@](C)(CCC(=O)N[C@@]2(C)COC(=O)CCCC[C@@H]2CCSS2)[C@@H]1/C=C/C1=CCOC1=O; experiment: Non competitive inhibition of recombinant human HK2 expressed in Escherichia coli BL21(DE3) assessed as Km using 6.25 uM ATP as substrate by Lineweaver-Burk double reciprocal plot analysis (reference value: 1.62 mM)
[9] = compound: C=C1CC[C@H]2[C@@](C)(CCC(=O)N[C@@]2(C)COC(=O)CCCC[C@@H]2CCSS2)[C@@H]1/C=C/C1=CCOC1=O; experiment: Non competitive inhibition of recombinant human HK2 expressed in Escherichia coli BL21(DE3) assessed as Km using 12.5 uM ATP as substrate by Lineweaver-Burk double reciprocal plot analysis (reference value: 1.62 mM)
[10] = compound: C=C1CC[C@H]2[C@@](C)(CCC(=O)N[C@@]2(C)COC(=O)CCCC[C@@H]2CCSS2)[C@@H]1/C=C/C1=CCOC1=O; experiment: Non competitive inhibition of recombinant human HK2 expressed in Escherichia coli BL21(DE3) assessed as Vmax using 6.25 uM glucose as substrate by Lineweaver-Burk double reciprocal plot analysis (reference value: 0.012 OD/min)
[11] = compound: C=C1CC[C@H]2[C@@](C)(CCC(=O)N[C@@]2(C)COC(=O)CCCC[C@@H]2CCSS2)[C@@H]1/C=C/C1=CCOC1=O; experiment: Non competitive inhibition of recombinant human HK2 expressed in Escherichia coli BL21(DE3) assessed as Vmax using 12.5 uM glucose as substrate by Lineweaver-Burk double reciprocal plot analysis (reference value: 0.012 OD/min)
[12] = compound: C=C1CC[C@H]2[C@@](C)(CCC(=O)N[C@@]2(C)COC(=O)CCCC[C@@H]2CCSS2)[C@@H]1/C=C/C1=CCOC1=O; experiment: Non competitive inhibition of recombinant human HK2 expressed in Escherichia coli BL21(DE3) assessed as Vmax using 3.125 uM glucose as substrate by Lineweaver-Burk double reciprocal plot analysis (reference value: 0.012 OD/min)
[13] = compound: C=C1CC[C@H]2[C@@](C)(CCC(=O)N[C@@]2(C)COC(=O)CCCC[C@@H]2CCSS2)[C@@H]1/C=C/C1=CCOC1=O; experiment: Non competitive inhibition of recombinant human HK2 expressed in Escherichia coli BL21(DE3) assessed as Vmax using 6.25 uM ATP as substrate by Lineweaver-Burk double reciprocal plot analysis (reference value: 0.019 OD/min)
[14] = compound: C=C1CC[C@H]2[C@@](C)(CCC(=O)N[C@@]2(C)COC(=O)CCCC[C@@H]2CCSS2)[C@@H]1/C=C/C1=CCOC1=O; experiment: Non competitive inhibition of recombinant human HK2 expressed in Escherichia coli BL21(DE3) assessed as Vmax using 3.125 uM ATP as substrate by Lineweaver-Burk double reciprocal plot analysis (reference value: 0.019 OD/min)

Molecule	IC50 [1] [µM]	IC50 [2] [µM]	other results
C=C1CC[C@H]2[C@@](C)(CCC(=O)N[C@@]2(C)COC(=O)c2ccccc2)[C@@H]1/C=C/C1=CCOC1=O	> 50	> 50	–
C=C1CC[C@H]2[C@@](C)(CC[C@@H](OC(=O)c3cccnc3)[C@@]2(C)NC=O)[C@@H]1/C=C/C1=CCOC1=O	> 50	> 50	–
C=C1CC[C@H]2[C@@](C)(CCC(=O)N[C@@]2(C)COC(=O)[C@H](N)CC(C)C)[C@@H]1/C=C/C1=CCOC1=O	> 50	> 50	–
C=C1CC[C@H]2[C@@](C)(CC[C@@H](O)[C@@]2(C)NC=O)[C@@H]1/C=C/C1=CCOC1=O	> 50	> 50	–
C=C1CC[C@H]2[C@@](C)(CC[C@@H](OC(=O)CN)[C@@]2(C)NC=O)[C@@H]1/C=C/C1=CCOC1=O	> 50	> 50	–
C=C1CC[C@H]2[C@@](C)(CCC(=O)N[C@@]2(C)COC(=O)[C@H](N)Cc2ccccc2)[C@@H]1/C=C/C1=CCOC1=O	4.8	> 50	–
C=C1CC[C@H]2[C@@](C)(CC[C@@H](OC(=O)C(N)CC(C)C)[C@@]2(C)NC=O)[C@@H]1/C=C/C1=CCOC1=O (single isomer, unassigned)	> 50	> 50	–
C=C1CC[C@H]2[C@@](C)(CCC(=O)N[C@@]2(C)CO)[C@@H]1/C=C/C1=CCOC1=O	> 50	> 50	–
C=C1CC[C@H]2[C@@](C)(CCC(=O)N[C@@]2(C)COC(=O)[C@@H]2CCCN2)[C@@H]1/C=C/C1=CCOC1=O	> 50	> 50	–
C=C1CC[C@H]2[C@@](C)(CC[C@@H](OC(=O)c3ccccc3[N+](=O)[O-])[C@@]2(C)NC=O)[C@@H]1/C=C/C1=CCOC1=O	> 50	> 50	–
Hexokinase-2 (Homo sapiens), P52789 (protein) MIASHLLAYFFTELNHDQVQKVDQYLYHMRLSDETLLEISKRFRKEMEKGLGATTHPTAAVKMLPTFVRSTPDGTEHGEFLALDLGGTNFRVLWVKVTDNGLQKVEMENQIYAIPEDIMRGSGTQLFDHIAECLANFMDKLQIKDKKLPLGFTFSFPCHQTKLDESFLVSWTKGFKSSGVEGRDVVALIRKAIQRRGDFDIDIVAVVNDTVGTMMTCGYDDHNCEIGLIVGTGSNACYMEEMRHIDMVEGDEGRMCINMEWGAFGDDGSLNDIRTEFDQEIDMGSLNPGKQLFEKMISGMYMGELVRLILVKMAKEELLFGGKLSPELLNTGRFETKDISDIEGEKDGIRKAREVLMRLGLDPTQEDCVATHRICQIVSTRSASLCAATLAAVLQRIKENKGEERLRSTIGVDGSVYKKHPHFAKRLHKTVRRLVPGCDVRFLRSEDGSGKGAAMVTAVAYRLADQHRARQKTLEHLQLSHDQLLEVKRRMKVEMERGLSKETHASAPVKMLPTYVCATPDGTEKGDFLALDLGGTNFRVLLVRVRNGKWGGVEMHNKIYAIPQEVMHGTGDELFDHIVQCIADFLEYMGMKGVSLPLGFTFSFPCQQNSLDESILLKWTKGFKASGCEGEDVVTLLKEAIHRREEFDLDVVAVVNDTVGTMMTCGFEDPHCEVGLIVGTGSNACYMEEMRNVELVEGEEGRMCVNMEWGAFGDNGCLDDFRTEFDVAVDELSLNPGKQRFEKMISGMYLGEIVRNILIDFTKRGLLFRGRISERLKTRGIFETKFLSQIESDCLALLQVRAILQHLGLESTCDDSIIVKEVCTVVARRAAQLCGAGMAAVVDRIRENRGLDALKVTVGVDGTLYKLHPHFAKVMHETVKDLAPKCDVSFLQSEDGSGKGAALITAVACRIREAGQR	–	–	Km [3]: 657 µM; Km [4]: 1280 µM; Vmax (optical density/minute) [5]: 0.005; Km [6]: 685 µM; Km [7]: 695 µM; Km [8]: 1280 µM; Km [9]: 1210 µM; Vmax (optical density/minute) [10]: 0.005; Vmax (optical density/minute) [11]: 0.004; Vmax (optical density/minute) [12]: 0.007; Vmax (optical density/minute) [13]: 0.007; Vmax (optical density/minute) [14]: 0.012

More lines, main results first:

IC50 [1] [µM]	IC50 [2] [µM]	Molecule	other results
> 50	> 50	C=C1CC[C@H]2[C@@](C)(CC[C@@H](OC(=O)CNC)[C@@]2(C)NC=O)[C@@H]1/C=C/C1=CCOC1=O	–
> 50	> 50	C=C1CC[C@H]2[C@@](C)(CCC(=O)N[C@@]2(C)COC(=O)c2ccccc2[N+](=O)[O-])[C@@H]1/C=C/C1=CCOC1=O	–
> 50	> 50	C=C1CC[C@H]2[C@@](C)(CCC(=O)N[C@@]2(C)COC(=O)c2cccnc2)[C@@H]1/C=C/C1=CCOC1=O	–
26.1	> 50	C=C1CC[C@H]2[C@@](C)(CC[C@@H](OC(=O)[C@H]3CCCN3)[C@@]2(C)NC=O)[C@@H]1/C=C/C1=CCOC1=O	–
> 50	> 50	C=C1CC[C@H]2[C@@](C)(CC[C@@H](OC(=O)CCCC[C@@H]3CCSS3)[C@@]2(C)NC=O)[C@@H]1/C=C/C1=CCOC1=O	–
> 50	> 50	C=C1CC[C@H]2[C@@](C)(CC[C@@H](OC(=O)[C@@H](N)Cc3ccccc3)[C@@]2(C)NC=O)[C@@H]1/C=C/C1=CCOC1=O	–
> 50	50	C=C1CC[C@H]2[C@@](C)(CC[C@@H](OC(=O)c3ccccc3)[C@@]2(C)NC=O)[C@@H]1/C=C/C1=CCOC1=O	–
> 50	> 50	C=C1CC[C@H]2[C@@](C)(CC[C@@H](OC(=O)c3ccc([N+](=O)[O-])cc3)[C@@]2(C)NC=O)[C@@H]1/C=C/C1=CCOC1=O	–
> 50	14.4	C=C1CC[C@@H]2[C@](C)(CO)[C@H](O)CC[C@@]2(C)[C@@H]1C/C=C1/C(=O)OC[C@H]1O [ANDROGRAPHOLIDE]	–
–	52.4	C[C@]12CCC(=O)C=C1CC[C@@H]1[C@@H]2[C@@H](O)C[C@@]2(C)[C@H]1CC[C@]2(O)C(=O)CO [HYDROCORTISONE]	–
> 50	33.5	C=C1CC[C@H]2[C@@](C)(CCC(=O)N[C@@]2(C)COC(=O)c2ccc([N+](=O)[O-])cc2)[C@@H]1/C=C/C1=CCOC1=O	–
